{"source": "paper PMC5352051", "about": "“Identification of a novel Polo-like kinase 1 inhibitor that specifically blocks the functions of Polo-Box domain” (Oncotarget, 2016)", "key": {"Plk2 PBD": {"biological_target": "T1, Plk2 PBD (Homo sapiens, UniProt Q9NYY3)", "T1 construct": "(326-603 aa), Plk2 (355-685 aa), and Plk3 (335-646 aa); GST (N); made in house; host or cells: E. coli Rosetta BL21(DE3)", "T1 sequence (Q9NYY3 355-685)": "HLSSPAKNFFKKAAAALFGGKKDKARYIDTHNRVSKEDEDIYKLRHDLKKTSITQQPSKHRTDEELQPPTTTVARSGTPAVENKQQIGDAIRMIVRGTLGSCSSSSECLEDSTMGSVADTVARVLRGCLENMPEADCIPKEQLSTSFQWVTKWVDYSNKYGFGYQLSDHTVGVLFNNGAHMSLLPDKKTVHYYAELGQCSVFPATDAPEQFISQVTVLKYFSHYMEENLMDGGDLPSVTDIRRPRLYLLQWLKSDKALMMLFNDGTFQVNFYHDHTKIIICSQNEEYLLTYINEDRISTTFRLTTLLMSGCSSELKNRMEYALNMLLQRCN", "assay": "Fluorescence polarization assay, Plk2 PBD / FITC-labeled phosphopeptide", "format": "binding", "method": "FP assay was performed as follow. Briefly, 30 μL Plk1 PBD proteins (400 nM) were incubated with 0.3 μL tested compounds (1 mg/mL) with shaking for 1 hr at room temperature (RT) prior to addition of 30 μL FITC-Poloboxtide (FITC-GPMQSpTPLNG-OH; λex/λem: 485/535 nm; 60 nM) in FP buffer (50 mM Tris-HCl, 10 mM NaCl, 1 mM EDTA pH8.0). Three wells containing 30 μL FITC-Poloboxtide (60 nM) and 30 μL Plk1 PBD (400 nM) were used as negative control (0% inhibition); three wells containing 60 μL FITC-Poloboxtide (30 nM) only were used as positive control (100% inhibition). Fluorescence polarization was analyzed after incubation of FITC-Poloboxtide for 15 min in a 384-well black opaque microplate (Cat# 6007270, PerkinElmer) using Envision Multilabel Reader (PerkinElmer) at 25°C. We calculated the percentage of inhibition for each sample as follows: Inhibition(%)=Negative−Sample/Negative−Positive×100%\nWe plotted the inhibition values and determined IC50 using GraphPad Prism5.0. Together with the FITC-labeled peptides used for Plk1 PBD as mentioned above, the following peptides were used for specificity assays, FITC-GPMQTSpTPKNG-OH (Plk2 PBD), FITC-GPLATSpTPKNG-OH (Plk3 PBD). As described above for the FP assay, proteins were used at the following final concentrations: Plk1 PBD, 200 nM; Plk2 PBD, 450 nM; Plk3 PBD, 600 nM. All FITC-labeled peptides were chemically synthesized (China Peptides Co., Ltd., Shanghai) and further verified by mass spectrometry, and the purity is more than 95.0%."}, "Plk3 PBD": {"biological_target": "T2, Plk3 PBD (Homo sapiens, UniProt Q9H4B4)", "T2 construct": "(326-603 aa), Plk2 (355-685 aa), and Plk3 (335-646 aa); GST (N); made in house; host or cells: E. coli Rosetta BL21(DE3)", "T2 sequence (Q9H4B4 335-646)": "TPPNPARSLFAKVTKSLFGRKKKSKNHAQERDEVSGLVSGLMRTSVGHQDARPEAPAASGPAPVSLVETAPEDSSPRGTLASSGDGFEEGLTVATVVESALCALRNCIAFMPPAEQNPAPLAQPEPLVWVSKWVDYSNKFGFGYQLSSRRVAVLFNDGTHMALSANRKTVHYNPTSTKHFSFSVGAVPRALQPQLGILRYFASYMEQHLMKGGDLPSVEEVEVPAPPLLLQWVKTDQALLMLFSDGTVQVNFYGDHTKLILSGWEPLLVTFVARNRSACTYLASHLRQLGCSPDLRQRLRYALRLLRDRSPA", "assay": "Fluorescence polarization assay, Plk3 PBD / FITC-labeled phosphopeptide", "format": "binding", "settings": "Plk3 PBD", "method": "FP assay was performed as follow. […] We calculated the percentage of inhibition for each sample as follows: Inhibition(%)=Negative−Sample/Negative−Positive×100%\nWe plotted the inhibition values and determined IC50 using GraphPad Prism5.0. Together with the FITC-labeled peptides used for Plk1 PBD as mentioned above, the following peptides were used for specificity assays, FITC-GPMQTSpTPKNG-OH (Plk2 PBD), FITC-GPLATSpTPKNG-OH (Plk3 PBD)."}, "HeLa cells": {"tested_on": "HeLa cells", "assay": "Apoptosis assay, Annexin V/PI dual-staining", "format": "cell-based, human", "settings": "exponentially growing HeLa, various concentrations, 24 hrs, vs DMSO", "method": "For apoptosis assay, HeLa cells were seeded at 3.0×10^4 cells/well into 6-well plates and incubated overnight. Then exponentially growing HeLa cells were treated with T521 at the indicated concentrations for 24 hrs and Annexin V/PI dual-staining was carried out using a commercial apoptosis assay kit (Beijing 4A Biotech. Co., Ltd.). DMSO-treated cells were taken as control."}, "[1]": {"tested_on": "PARP cleavage in HeLa cells", "assay": "Western blot of PARP cleavage", "format": "cell-based, human", "settings": "24 hrs", "method": "We also performed a western blot assay to examine PARP cleavage, and the protocol was similar as describe above. Equal amount of proteins (30 μg/lane) were loaded, separated by 12% SDS-PAGE. Anti-PARP rabbit polyclonal antibody (Cat# 9542P; Cell Signaling Technology; 1:1500) was used as primary antibody. GAPDH was used as the loading control."}, "[2]": {"tested_on": "A549 lung-carcinoma cells", "assay": "A549 xenograft in nude mice, tumor volume", "format": "in vivo", "settings": "intratumoral injection 50 and 100 mg/kg, Wednesdays and Fridays, 5 weeks, vs DMSO", "method": "Female athymic nude mice were injected with 2.0 × 10^7 A549 lung-carcinoma cells subcutaneously. After 14~20 days, when the tumor volumes reached 100~150 mm^3, animals were divided into treatment (T521; 50, 100 mg/kg) and control (DMSO) groups with ten mice in each group. T521 (0.2 g/mL) dissolved in DMSO was administered alone and mice were treated with T521 by intratumoral injection at the different injection points according to indicated dose on Wednesdays and Fridays for 5 weeks. Tumor volumes were determined with a caliper on Monday and Thursday during drug administration cycle. Tumor volume (mm^3) was calculated using the following equation: V=L×S^2×π/6, where L is the length and S is width of the tumor. The body weight of these mice was determined as an indicator of tolerability on the same days. Student's t-tests were performed for statistical evaluation among treatment and control groups. All mice were properly treated in accordance with the guidelines of the local animal committee."}, "[3]": {"settings": "FP assay, 1 hr preincubation at RT, read-out: Apparent IC50"}, "[4]": {"settings": "concentration as high as 500 μM"}}}
{"molecule": "CCS(=O)(=O)c1oc(-c2ccc(F)cc2)nc1S(=O)(=O)c1ccccc1", "note": "[T521, 5-(ethylsulfonyl)-2-(4-fluorophenyl)-4-(phenylsulfonyl) oxazole]", "values": [{"measurement": "IC50", "setting": "Plk2 PBD; [3]", "value": "> 500", "unit": "µM"}, {"measurement": "inhibition of binding of PBD to FITC-labeled phosphopeptide", "setting": "Plk2 PBD; [4]", "value": "little inhibition"}, {"measurement": "IC50", "setting": "Plk3 PBD; [3]", "value": "> 500", "unit": "µM"}, {"measurement": "inhibition of binding of PBD to FITC-labeled phosphopeptide", "setting": "Plk3 PBD; [4]", "value": "little inhibition"}, {"measurement": "cell population positive for Annexin V staining", "setting": "HeLa cells", "value": "increase of cell population positive for Annexin V staining"}, {"measurement": "PARP cleavage", "setting": "[1]", "value": "increase of PARP cleavage"}, {"measurement": "tumor volume", "setting": "[2]", "value": "obvious reduction of tumor volume"}]}
